According to patent US20250051347A1, “BIFUNCTIONAL CHIMERIC HETEROCYCLIC COMPOUND AND USE THEREOF AS ANDROGEN RECEPTOR DEGRADER” (Hinova Pharmaceuticals, Inc., priority 2021, published 2025):
Read-outs that look alike come from different tables or passages of the source.

Key:
[1] = molecular target: T1, androgen receptor (AR) splicing variant AR-v7 (Homo sapiens, UniProt P10275); assay: Degradation activity on androgen receptor splicing variant AR-v7 in 22RV1 cells (ELISA); assay type: cell-based; conditions: AR-v7 degradation in 22RV1 cells, 48 h, class symbols
T1 construct: The degradation activity of compounds on AR-v7 in 22RV1 cells; host or cells: 22RV1 cells
T1 sequence (P10275 1-644 isoform P10275-3): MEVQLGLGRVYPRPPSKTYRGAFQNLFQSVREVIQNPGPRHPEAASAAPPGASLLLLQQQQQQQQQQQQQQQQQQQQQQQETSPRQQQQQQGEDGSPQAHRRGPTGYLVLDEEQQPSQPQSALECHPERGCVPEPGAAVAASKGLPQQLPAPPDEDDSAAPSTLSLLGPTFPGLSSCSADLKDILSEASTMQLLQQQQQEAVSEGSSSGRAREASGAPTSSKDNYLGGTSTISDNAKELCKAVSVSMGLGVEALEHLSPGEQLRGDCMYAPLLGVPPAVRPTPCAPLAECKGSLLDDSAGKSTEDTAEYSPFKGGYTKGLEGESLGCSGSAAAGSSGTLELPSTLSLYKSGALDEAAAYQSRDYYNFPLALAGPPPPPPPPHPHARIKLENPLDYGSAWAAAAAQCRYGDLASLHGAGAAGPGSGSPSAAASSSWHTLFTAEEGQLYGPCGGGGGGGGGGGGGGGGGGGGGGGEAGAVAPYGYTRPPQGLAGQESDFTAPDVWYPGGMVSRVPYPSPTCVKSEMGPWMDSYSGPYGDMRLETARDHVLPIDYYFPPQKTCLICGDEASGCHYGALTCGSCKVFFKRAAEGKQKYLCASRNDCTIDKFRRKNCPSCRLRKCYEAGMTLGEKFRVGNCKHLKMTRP

[2] = test system: 22RV1 cells
[3] = Homo sapiens, 22Rv1, 144 h, read-out: 22RV1 IC50 (nM), 22RV1 cells, 6 days culture, CCK-8, OD 450 nm
[4] = Homo sapiens, 22Rv1, 144 h, read-out: 22RV1 IC50 (nM)

DC50 [1] [nM] | IC50 [2, 3] [nM] | IC50 ([2]; read-out: 22RV1 IC50, 22RV1 cells, 6 days culture, CCK-8, OD 450 nm) [nM] | Compound | IC50 [2, 4] [nM]
11 to 100 | 11 |  | CC1CN(c2nccc(COc3ccc(C(C)(C)c4ccc(OC5CC(Nc6ccc7c(c6)C(=O)N(C6CCC(=O)NC6=O)C7=O)C5)cc4)cc3)n2)CCN1C (stereo not drawn) [Example 448] | 
11 to 100 | 10 |  | COc1nccc(COc2ccc(C(C)(C)c3ccc(O[C@H]4C[C@H](Nc5ccc6c(c5)C(=O)N(C5CCC(=O)NC5=O)C6=O)C4)cc3)cc2)n1 (stereo partly drawn) [Example 449, 2-(2,6-dioxopiperidin-3-yl)-5-(((1r,3r)-3-(4-(2-(4-((2-methoxypyrimidin-4-yl)methoxy)phenyl)propan-2-yl)phenoxy)cyclobutyl)amino) isoindolin-1,3-dione] | 
11 to 100 | 8 |  | CC1CN(c2nccc(COc3ccc(C(C)(C)c4ccc(O[C@H]5C[C@H](Nc6ccc7c(c6)C(=O)N(C6CCC(=O)NC6=O)C7=O)C5)cc4)cc3)n2)CCN1C (stereo partly drawn) [Example 450, 5-(((1r,3r)-3-(4-(2-(4-((2-(3,4-dimethylpiperazin-1-yl)pyrimidin-4-yl)methoxy)phenyl)propan-2-yl)phenoxy)cyclobutyl)amino)-2-(2,6-dioxopiperidin-3-yl)isoindolin-1,3-dione] | 
< 10 | 11 |  | CC(C)(c1ccc(OCc2ccnc(N3CCNCC3)n2)cc1)c1ccc(OC2CC(Nc3ccc4c(c3)C(=O)N(C3CCC(=O)NC3=O)C4=O)C2)cc1 (stereo not drawn) [Example 451, 2-(2,6-dioxopiperidin-3-yl)-5-((3-(4-(2-(4-((2-(piperazin-1-yl)pyrimidin-4-yl)methoxy)phenyl)propan-2-yl)phenoxy)cyclobutyl)amino)isoindolin-1,3-dione] | 
11 to 100 | 8 |  | CC1CN(c2nccc(COc3ccc(C(C)(C)c4ccc(OC5CC(Nc6ccc7c(c6)C(=O)N(C6CCC(=O)NC6=O)C7=O)C5)cc4)cc3)n2)CC(C)N1 (stereo not drawn) [Example 452, 5-((3-(4-(2-(4-((2-(3,5-dimethylpiperazin-1-yl)pyrimidin-4-yl)methoxy)phenyl)propan-2-yl)phenoxy)cyclobutyl)amino)-2-(2,6-dioxopiperidin-3-yl)isoindolin-1,3-dione] | 
< 10 | 6 |  | CC(C)(c1ccc(OCc2ccnc(N3CC(O)C3)n2)cc1)c1ccc(O[C@H]2C[C@@H](Nc3ccc4c(c3)C(=O)N(C3CCC(=O)NC3=O)C4=O)C2)cc1 (stereo partly drawn) [Example 453] | 
< 10 | 11 |  | CC(C)(c1ccc(OCc2ccnc(-n3cnnc3)n2)cc1)c1ccc(O[C@H]2C[C@@H](Nc3ccc4c(c3)C(=O)N(C3CCC(=O)NC3=O)C4=O)C2)cc1 (stereo partly drawn) [Example 461] | 
< 10 | 11 |  | Cc1nnc(-c2cccc(COc3ccc(C(C)(C)c4ccc(O[C@H]5C[C@H](Nc6ccc7c(c6)C(=O)N(C6CCC(=O)NC6=O)C7=O)C5)cc4)cc3)n2)o1 (stereo partly drawn) [Example 463] | 
< 10 | 3 |  | Cc1nnc(-c2nccc(COc3ccc(C(C)(C)c4ccc(O[C@H]5C[C@@H](Nc6ccc7c(c6)C(=O)N(C6CCC(=O)NC6=O)C7=O)C5)cc4)cc3)n2)o1 (stereo partly drawn) [Example 465] | 
< 10 | 5 |  | CC(C)(c1ccc(OCc2ccnc(-c3nnco3)n2)cc1)c1ccc(O[C@H]2C[C@H](Nc3ccc4c(c3)C(=O)N(C3CCC(=O)NC3=O)C4=O)C2)cc1 (stereo partly drawn) [Example 468, 5-(((1r,3r)-3-(4-(2-(4-((2-(1,3,4-oxadiazol-2-yl)pyrimidin-4-yl)methoxy)phenyl)propan-2-yl)phenoxy)cyclobutyl)amino)-2-(2,6-dioxopiperidin-3-yl)isoindolin-1,3-dione] | 
< 10 | 7 |  | CC(C)(c1ccc(OCc2cccc(-c3nnco3)n2)cc1)c1ccc(O[C@H]2C[C@H](Nc3ccc4c(c3)C(=O)N(C3CCC(=O)NC3=O)C4=O)C2)cc1 (stereo partly drawn) [Example 470, 5-(((1r,3r)-3-(4-(2-(4-((6-(1,3,4-oxadiazol-2-yl)pyridin-2-yl)methoxy)phenyl)propan-2-yl)phenoxy)cyclobutyl)amino)-2-(2,6-dioxopiperidin-3-yl)isoindolin-1,3-dione] | 
< 10 | 17 |  | CC(C)(c1ccc(Oc2ccnc(-n3ccnn3)n2)cc1)c1ccc(O[C@H]2C[C@H](Nc3ccc4c(c3)C(=O)N(C3CCC(=O)NC3=O)C4=O)C2)cc1 (stereo partly drawn) [Example 471, 5-(((1r,3r)-3-(4-(2-(4-((2-(1H-1,2,3-triazol-1-yl)pyrimidin-4-yl)oxy)phenyl)propan-2-yl)phenoxy)cyclobutyl)amino)-2-(2,6-dioxopiperidin-3-yl)isoindolin-1,3-dione] | 
11 to 100 | 5 |  | Cc1nnc(-c2ncc(Oc3ccc(C(C)(C)c4ccc(O[C@H]5C[C@H](Nc6ccc7c(c6)C(=O)N(C6CCC(=O)NC6=O)C7=O)C5)cc4)cc3)cn2)o1 (stereo partly drawn) [Example 473] | 
11 to 100 | 14 |  | CC(C)(c1ccc(Oc2cnc(-n3ccnn3)nc2)cc1)c1ccc(O[C@H]2C[C@H](Nc3ccc4c(c3)C(=O)N(C3CCC(=O)NC3=O)C4=O)C2)cc1 (stereo partly drawn) [Example 476] | 
< 10 | 9 |  | CC(C)(c1ccc(Oc2cncnc2)cc1)c1ccc(O[C@H]2C[C@H](Nc3ccc4c(c3)C(=O)N(C3CCC(=O)NC3=O)C4=O)C2)cc1 (stereo partly drawn) [Example 477, 2-(2,6-dioxopiperidin-3-yl)-5-(((1r,3r)-3-(4-(2-(4-(pyrimidin-5-yloxy)phenyl)propan-2-yl)phenoxy)cyclobutyl)amino)isoindolin-1,3-dione] | 
< 10 | 6 |  | CC(C)(c1ccc(Oc2ccc(CN3CC(F)C3)nn2)cc1)c1ccc(O[C@H]2C[C@H](Nc3ccc4c(c3)C(=O)N(C3CCC(=O)NC3=O)C4=O)C2)cc1 (stereo partly drawn) [Example 478] | 
< 10 | 12 |  | Cc1nc(-c2ncc(Oc3ccc(C(C)c4ccc(O[C@H]5C[C@H](Nc6ccc7c(c6)C(=O)N(C6CCC(=O)NC6=O)C7=O)C5)cc4)cc3)cn2)no1 (stereo partly drawn) [Example 480] | 
< 10 | 7 |  | CC(O)c1nccc(COc2ccc(C(C)(C)c3ccc(O[C@H]4C[C@@H](Nc5ccc6c(c5)C(=O)N(C5CCC(=O)NC5=O)C6=O)C4)cc3)cc2)n1 (stereo partly drawn) [Example 492] | 
< 10 | 7 |  | CC(C)(c1ccc(NC2CC(Nc3ccc4c(c3)C(=O)N(C3CCC(=O)NC3=O)C4=O)C2)cc1)c1ccc(OCc2ccnc(N3CC4(COC4)C3)n2)cc1 (stereo not drawn) [Example 494, 5-((3-((4-(2-(4-((2-(2-oxa-6-azaspiro[3.3]heptan-6-yl)pyrimidin-4-yl)methoxy)phenyl)propan-2-yl)phenyl)amino)cyclobutyl)amino)-2-(2,6-dioxopiperidin-3-yl)isoindolin-1,3-dione] | 
< 10 | 4 |  | CC(C)(c1ccc(OCc2ccnc(N3CC4(COC4)C3)n2)cc1)c1ccc(C(=O)NC2CN(c3ccc4c(c3)C(=O)N(C3CCC(=O)NC3=O)C4=O)C2)cc1 (stereo not drawn) [Example 506, 4-(2-(4-((2-(2-oxa-6-azaspiro[3.3]heptan-6-yl)pyrimidin-4-yl)methoxy)phenyl)propan-2-yl)-N-(1-(2-(2,6-dioxopiperidin-3-yl)-1,3-dioxoisoindolin-5-yl)azetidin-3-yl)benzamide] | 
< 10 | 8 |  | Cc1nc(-c2ncc(F)cc2Oc2ccc(C(C)(C)c3ccc(O[C@H]4C[C@H](Nc5ccc6c(c5)C(=O)N(C5CCC(=O)NC5=O)C6=O)C4)cc3)cc2)no1 (stereo partly drawn) [Example 512] | 
< 10 | 12 |  | CC(C)(c1ccc(Oc2nnc(N3CCOCC3)s2)cc1)c1ccc(O[C@H]2C[C@H](Nc3ccc4c(c3)C(=O)N(C3CCC(=O)NC3=O)C4=O)C2)cc1 (stereo partly drawn) [Example 513] | 
< 10 |  | 16 | CC(C)(c1ccc(Oc2cc(F)cnc2-n2ccnn2)cc1)c1ccc(O[C@H]2C[C@H](Nc3ccc4c(c3)C(=O)N(C3CCC(=O)NC3=O)C4=O)C2)cc1 (stereo partly drawn) [Example 517] | 
< 10 | 13 |  | CC(c1ccc(Oc2cnc(-n3nccn3)nc2)cc1)c1ccc(O[C@H]2C[C@H](Nc3ccc4c(c3)C(=O)N(C3CCC(=O)NC3=O)C4=O)C2)cc1 (stereo partly drawn) [Example 518] | 
11 to 100 | 7 |  | CC(O)c1ccc(Oc2ccc(C(C)(C)c3ccc(O[C@H]4C[C@@H](Nc5ccc6c(c5)C(=O)N(C5CCC(=O)NC5=O)C6=O)C4)cc3)cc2)nn1 (stereo partly drawn) [Example 522] | 

Compound | DC50 [1] [nM] | IC50 [2, 3] [nM] | IC50 ([2]; read-out: 22RV1 IC50, 22RV1 cells, 6 days culture, CCK-8, OD 450 nm) [nM] | IC50 [2, 4] [nM]
CC(=O)c1nccc(COc2ccc(C(C)(C)c3ccc(O[C@H]4C[C@@H](Nc5ccc6c(c5)C(=O)N(C5CCC(=O)NC5=O)C6=O)C4)cc3)cc2)n1 (stereo partly drawn) [Example 491] | < 10 |  |  | 4
CC(CNc1ccc2c(c1)C(=O)N(C1CCC(=O)NC1=O)C2=O)COc1ccc(C(C)(C)c2ccc(OCc3ccnc(N4CC5(COC5)C4)n3)cc2)cc1 (stereo not drawn) [Example 496, 5-((3-(4-(2-(4-((2-(2-oxa-6-azaspiro[3.3]heptan-6-yl)pyrimidin-4-yl)methoxy)phenyl)propan-2-yl)phenoxy)-2-methylpropyl)amino)-2-(2,6-dioxopiperidin-3-yl)isoindolin-1,3-dione] | < 10 |  |  | 61
